Patent US8557823B2, “Family of PFKFB3 inhibitors with anti-neoplastic activities” (Advanced Cancer Therapeutics, LLC, priority 2007, dated 2013)
In brackets after ≈: the same amount, converted by molar mass. Where a name gives a salt, the structure may show the parent alone. Read-outs that look alike come from different tables or passages of the source. Values belong to the molecule of their own block, whether it stands above or below them.

Tests used:
[1] = test system: Jurkat; test: Cancer cell proliferation, Alamar Blue assay 72 hours, Jurkat; assay type: cell-based
Protocol: (§1) The ability of the compounds described herein to kill or inhibit the proliferation of cancer cells was measured using either the MTT assay, the Alamar Blue assay, or the Cell Titer Glow® assay using 48 or 72 hours exposure. […] The procedures are briefly described below. Cells of the desired tumor cell line were plated at 2×10^5 cells/ml in 96 well plates. Twice the indicated concentrations of the compounds of the invention were added to cells the following day in an equal volume of media. 72 hours later, cells were lysed and subjected to ATP determination using the CellTiter Glo-Luminescent Cell Viability Assay kit (Promega, Madison, Wis.). Experiments were done in triplicate. When using the MTT assay or the Alamar blue assay, the experimental conditions are essentially similar; at the end of the incubation period, 20 microl of the MTT solution is added per well and the samples are incubated for an additional four hours, rinsed and the absorbance at 570 nm measured. Results for the inhibition of cells proliferation are reported as IC50 as commonly done (the concentration leading to a 50% inhibition of proliferation of the cell population) and are listed in the Tables below. Table 4 lists the IC50 for the compounds of the invention in several cell lines including Jurkat, Calu-6, NCI-H82, U937, or NCI-H1437 cancer cell lines. Table 5 lists the IC50 of PFK-070 in a panel of 10 cell lines.

[2] = test system: U937; test: Cancer cell proliferation, Alamar Blue assay 72 hours, U937; assay type: cell-based; conditions: Homo sapiens, U-937
Protocol: as §1

[3] = test system: Calu-6; test: Cancer cell proliferation, Alamar Blue assay 72 hours, Calu-6; assay type: cell-based; conditions: Homo sapiens
Protocol: as §1

[4] = test system: NCI-H82; test: Cancer cell proliferation, Alamar Blue assay 72 hours, NCI-H82; assay type: cell-based; conditions: Homo sapiens
Protocol: as §1

[5] = Microsomal stability in human liver microsomes; assay type: in vitro ADME; conditions: 0 min
Protocol: Microsomal stability in vitro in different biologic media (liver microsomes, S9 fraction, hepatocytes) and species is ascertained to evaluate the rate at which a compound undergoes metabolism in the experimental in vitro conditions. […] Experimental conditions are briefly described here: the stability in human liver microsomes of several compounds was done over […] at 37° C. using pooled mixed gender human liver microsomes. These liver microsomes were prepared at 1.0 mg/ml of microsomal protein in a 100 mM potassium phosphate pH 7.4 buffer with 1 mM NADPH. The media was incubated at 37° C. with the compound in solution in DMSO. The concentration of the compound was followed by LC/MS-MS as a function of time. […] Testosterone was used as a positive control. The same experiment was performed with mouse, rat or dog liver microsomes instead of human liver microsomes.

[6] = test system: NCI-H1437; test: Cancer cell proliferation, Alamar Blue assay 72 hours, NCI-H1437; assay type: cell-based; conditions: Homo sapiens
Protocol: as §1

[7] = Solubility in dosing solution Cre:EtOH:Saline; assay type: physicochemical; conditions: Cremophor:EtOH:Saline 5:5:90, aqueous with cosolvent or surfactant or cyclodextrin, kinetic from dmso stock; 5:5:90 Cremophor:EtOH:Saline, after 24 hours at room temperature
Description: (§2) Chemical properties of the compounds of the invention were investigated, mainly the solubility in several solvents and pharmaceutically accepted excipients or dosing solutions and the stability of these solutions. […] The increase in solubility when comparing the effect of chemical substituents is unpredictable and surprising if one compares the solubility values of PFK-070 to PFK-091 and PFK-070 to PFK-141 and 145 in a dosing solution that could be used to treat cancer patients (See Table 8A below). Briefly, selected compounds of the invention are dissolved in a small volume of the solvents/excipients of interest (Cremophor, or Cremophor:etoh or Tween80:etoh) at room temperature and diluted 1:9 in saline and left at room temperature for over 8 or 24 hours. Both the physical (absence of a precipitate) and the chemical stability (less than 5% degradation) of the solutions are measured (observation and HPLC after filtration).

[8] = target: T1, PFKFB3, the recombinant protein (Homo sapiens, UniProt Q16875); test: Inhibition of recombinant PFKFB3 (Adapta Kinase assay); assay type: biochemical; conditions: read-out: IC50 EArec
T1 construct: made in house; host or cells: E. coli
Protocol: PFKFB3 was prepared by expression in E. coli and purified by GST column and column chromatography. […] The recombinant protein was pure and active as determined by the results of a kinase activity assay commercially available (Adapta® Kinase assay).

[9] = Solution stability in clear and amber vials; assay type: physicochemical; conditions: Cre:EtOH:Saline
Description: as §2
Furthermore, the solution stability of the compounds was investigated and it was discovered that, in normal conditions, they lack the appropriate solution stability as they undergo a rapid photoisomerization; this lack of solution stability is such that methods to prevent these compounds from reacting in solutions are necessary if these compounds are to be used as chemotherapeutic agents for the treatment of cancer patients.

[10] = Solubility profile in aqueous media; assay type: physicochemical; conditions: 23 °C, aqueous buffer

T1 sequence (Q16875 whole entry): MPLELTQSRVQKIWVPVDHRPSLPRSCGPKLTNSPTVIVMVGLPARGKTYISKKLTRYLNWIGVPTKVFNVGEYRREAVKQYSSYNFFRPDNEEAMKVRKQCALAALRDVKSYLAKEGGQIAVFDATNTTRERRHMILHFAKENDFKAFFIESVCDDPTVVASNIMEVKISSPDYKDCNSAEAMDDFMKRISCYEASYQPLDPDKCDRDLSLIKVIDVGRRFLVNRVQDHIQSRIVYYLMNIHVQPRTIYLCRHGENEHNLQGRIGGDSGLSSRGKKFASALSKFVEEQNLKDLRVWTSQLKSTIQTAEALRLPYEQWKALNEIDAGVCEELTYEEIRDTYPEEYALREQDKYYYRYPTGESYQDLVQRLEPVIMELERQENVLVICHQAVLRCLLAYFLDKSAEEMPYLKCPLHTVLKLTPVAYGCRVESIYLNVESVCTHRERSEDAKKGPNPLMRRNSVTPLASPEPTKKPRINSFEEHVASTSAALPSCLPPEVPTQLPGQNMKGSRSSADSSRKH

Structure (SMILES): O=C(/C=C/c1ccc2ccccc2n1)c1cccnc1 [ACT-PFK-035, 1-Pyridin-3-yl-3-quinolin-2-yl-propenone]
- IC50 ([1]; Homo sapiens, Jurkat, 72 h): 2500 nM

Structure (SMILES): O=C(/C=C/c1ccnc2ccccc12)c1cccnc1 [ACT-PFK-036, 1-Pyridin-3-yl-3-quinolin-4-yl-propenone]
- IC50 ([1]; Homo sapiens, Jurkat, 72 h): 2500 nM

Structure (SMILES): O=C(/C=C/c1ccc2cccnc2c1)c1cccnc1 [ACT-PFK-037, 1-Pyridin-3-yl-3-quinolin-7-yl-propenone]
- IC50 ([1]; Homo sapiens, Jurkat, 72 h): 2500 nM

Structure (SMILES): O=C(/C=C/c1cccc2cccnc12)c1ccncc1 [ACT-PFK-047, 1-Pyridin-4-yl-3-quinolin-8-yl-propenone]
- IC50 ([1]; Homo sapiens, Jurkat, 72 h): 14000 nM

Structure (SMILES): O=C(/C=C/c1cnc2ccccc2c1)c1ccncc1 [ACT-PFK-055, 1-Pyridin-4-yl-3-quinolin-3-yl-propenone]
- IC50 [1]: > 100000 nM

Structure (SMILES): Cc1ccc(C(=O)/C=C/c2cc(O)c3ccccc3n2)cc1 [ACT-PFK-073, 3-(4-Hydroxy-quinolin-2-yl)-1-p-tolyl-propenone]
- IC50 [2]: 200 nM
- IC50 [3]: 800 nM
- IC50 ([1]; Homo sapiens, Jurkat, 72 h): 600 nM

Structure (SMILES): O=C(/C=C/c1ccc2ccccc2n1)c1ccccc1O [ACT-PFK-086, 1-(2-Hydroxy-phenyl)-3-quinolin-2-yl-propenone]
- IC50 [4]: 22500 nM
- IC50 [2]: 19300 nM
- IC50 [3]: > 100000 nM
- IC50 ([1]; Homo sapiens, Jurkat, 72 h): 80500 nM

Structure (SMILES): O=C(/C=C/c1ccc2ccccc2n1)c1ccc(O)cc1 [ACT-PFK-087, 1-(4-Hydroxy-phenyl)-3-quinolin-2-yl-propenone]
- IC50 [4]: 2300 nM
- IC50 [2]: 1300 nM
- IC50 [3]: 1600 nM
- IC50 ([1]; Homo sapiens, Jurkat, 72 h): 3700 nM

Structure (SMILES): O=C(/C=C/c1ccc2cccc(F)c2n1)c1ccncc1 [ACT-PFK-145, 3-(8-Fluoro-quinolin-2-yl)-1-pyridin-4-yl-propenone]
- Mean metabolized (%) [5]: 0%
- IC50 [6]: 4700 nM
- solubility at 24 h [7]: 100 µg/mL (≈ 359 µM)
- IC50 [4]: 1500 nM
- IC50 ([1]; Homo sapiens, Jurkat, 72 h): 900 nM
- IC50 [8]: 294 ± 38 nM

Structure (SMILES): Cc1ccc2ccc(/C=C/C(=O)c3ccncc3)nc2c1 [ACT-PFK-154, 3-(7-Methyl-quinolin-2-yl)-1-pyridin-4-yl-propenone]
- Mean metabolized (%) [5]: 0%
- IC50 [8]: 622 ± 39 nM

Structure (SMILES): O=C(/C=C/c1ccc2cccc(O)c2n1)c1ccncc1 [PFK-070, HCl, 3-(8-Hydroxy-quinolin-2-yl)-1-pyridin-4-yl-propenone]
- Solubility stability, Amber Vials ([9]; 0 hrs): 1000 µg/mL
- Solubility stability, Amber Vials ([9]; 2 hrs): No change
- appearance of solution, Clear Vials ([9]; 2 hrs): Change in color
- Solubility stability, Amber Vials ([9]; 4 hrs): No change
- appearance of solution, Clear Vials ([9]; 4 hrs): Change in color
- Solubility stability, Amber Vials ([9]; 8 hrs): No change
- appearance of solution, Clear Vials ([9]; 8 hrs): Change in color
- solubility at 0 h ([9]; Cremophor:EtOH:Saline solution, aqueous with cosolvent or surfactant or cyclodextrin, kinetic from dmso stock, 0 hrs): 1000 µg/mL
- solubility at 2 h ([9]; Cremophor:EtOH:Saline solution, aqueous with cosolvent or surfactant or cyclodextrin, kinetic from dmso stock, 2 hrs): 900 µg/mL
- solubility at 4 h ([9]; Cremophor:EtOH:Saline solution, aqueous with cosolvent or surfactant or cyclodextrin, kinetic from dmso stock, 4 hrs): 800 µg/mL
- solubility at 8 h ([9]; Cremophor:EtOH:Saline solution, aqueous with cosolvent or surfactant or cyclodextrin, kinetic from dmso stock, 8 hrs): < 700 µg/mL

Structure (SMILES): Cc1cccc2ccc(/C=C/C(=O)c3ccncc3)nc12 [PFK-141, HCl, 3-(8-Methyl-quinolin-2-yl)-1-pyridin-4-yl-propenone]
- solubility ([10]; pH = 5): 1700 µg/mL
- solubility ([10]; pH = 7): 1900 µg/mL

Now from value to molecule:

- IC50 ([1]; Homo sapiens, Jurkat, 72 h): 1000 nM
Structure (SMILES): O=C(/C=C/c1ccnc2ccccc12)c1ccncc1 [ACT-PFK-013, 1-Pyridin-4-yl-3-quinolin-4-yl-propenone]

- IC50 [1]: 4000 nM
Structure (SMILES): O=C(/C=C/c1cnc2ccccc2c1)c1ccncc1 [ACT-PFK-014, 1-Pyridin-4-yl-3-quinolin-3-yl-propenone]

- IC50 ([1]; Homo sapiens, Jurkat, 72 h): 1000 nM
Structure (SMILES): O=C(/C=C/c1cccc2ncccc12)c1ccncc1 [ACT-PFK-038, 1-Pyridin-4-yl-3-quinolin-5-yl-propenone]

- IC50 ([1]; Homo sapiens, Jurkat, 72 h): 1000 nM
Structure (SMILES): O=C(/C=C/c1cccc2ncccc12)c1cccnc1 [ACT-PFK-039, 1-Pyridin-3-yl-3-quinolin-5-yl-propenone]

- IC50 ([1]; Homo sapiens, Jurkat, 72 h): 17000 nM
Structure (SMILES): O=C(/C=C/c1cnc2ccccc2c1)c1cccnc1 [ACT-PFK-048, 1-Pyridin-3-yl-3-quinolin-3-yl-propenone]

- IC50 [2]: 1300 nM
- IC50 [3]: 3800 nM
- IC50 ([1]; Homo sapiens, Jurkat, 72 h): 2400 nM
Structure (SMILES): O=C(/C=C/c1cc(O)c2ccccc2n1)c1ccncc1 [ACT-PFK-066, 3-(4-Hydroxy-quinolin-2-yl)-1-pyridin-4-yl-propenone]

- IC50 [2]: 830 nM
- IC50 [3]: 2400 nM
- IC50 ([1]; Homo sapiens, Jurkat, 72 h): 3100 nM
Structure (SMILES): O=C(/C=C/c1ccc2cccc(O)c2n1)c1cccnc1 [ACT-PFK-067, 3-(8-Hydroxy-quinolin-2-yl)-1-pyridin-3-yl-propenone]

- IC50 [2]: 1600 nM
- IC50 [3]: 4800 nM
- IC50 ([1]; Homo sapiens, Jurkat, 72 h): 5500 nM
Structure (SMILES): Cc1ccc(C(=O)/C=C/c2ccc3ccccc3n2)cc1 [ACT-PFK-068, 3-Quinolin-2-yl-1-p-tolyl-propenone]

- IC50 [2]: 1900 nM
- IC50 [3]: 5000 nM
- IC50 ([1]; Homo sapiens, Jurkat, 72 h): 4800 nM
Structure (SMILES): Cc1ccc(C(=O)/C=C/c2ccc3cccc(O)c3n2)cc1 [ACT-PFK-071, 3-(8-Hydroxy-quinolin-2-yl)-1-p-tolyl-propenone]

- IC50 [4]: 38500 nM
- IC50 [2]: 17200 nM
- IC50 [3]: > 100000 nM
- IC50 ([1]; Homo sapiens, Jurkat, 72 h): > 100000 nM
Structure (SMILES): Nc1ccccc1C(=O)/C=C/c1ccc2ccccc2n1 [ACT-PFK-088, 1-(2-Amino-phenyl)-3-quinolin-2-yl-propenone]

- IC50 [4]: 900 nM
- IC50 [2]: 1600 nM
- IC50 [3]: 2100 nM
- IC50 ([1]; Homo sapiens, Jurkat, 72 h): 4200 nM
Structure (SMILES): Nc1ccc(C(=O)/C=C/c2ccc3ccccc3n2)cc1 [ACT-PFK-089, 1-(4-Amino-phenyl)-3-quinolin-2-yl-propenone]

- Mean metabolized (%) [5]: 0%
- IC50 [6]: 5400 nM
- solubility at 24 h [7]: 800 µg/mL (≈ 2920 µM)
- IC50 [4]: 1100 nM
- IC50 ([1]; Homo sapiens, Jurkat, 72 h): 900 nM
- IC50 [8]: 210 ± 51 nM
Structure (SMILES): Cc1cccc2ccc(/C=C/C(=O)c3ccncc3)nc12 [ACT-PFK-141, 3-(8-Methyl-quinolin-2-yl)-1-pyridin-4-yl-propenone]

- IC50 [6]: 4300 nM
- IC50 [4]: 2600 nM
- IC50 ([1]; Homo sapiens, Jurkat, 72 h): 1700 nM
- IC50 [8]: 654 ± 95 nM
Structure (SMILES): O=C(/C=C/c1ccc2ccccc2n1)c1ccnc(F)c1 [ACT-PFK-143, 1-(2-Fluoro-pyridin-4-yl)-3-quinolin-2-yl-propenone]

- solubility at 24 h [7]: 300 µg/mL (≈ 1090 µM)
- IC50 [8]: 811 ± 266 nM
Structure (SMILES): O=C(/C=C/c1ccc2cc(O)ccc2n1)c1ccncc1 [ACT-PFK-149, 3-(6-Hydroxy-quinolin-2-yl)-1-pyridin-4-yl-propenone]

- Mean metabolized (%) [5]: 0%
- solubility at 24 h [7]: 1900 µg/mL (≈ 6570 µM)
- IC50 [8]: 289 ± 56 nM
Structure (SMILES): CNc1cccc2ccc(/C=C/C(=O)c3ccncc3)nc12 [ACT-PFK-151, 3-(8-Methylamino-quinolin-2-yl)-1-pyridin-4-yl-propenone]

- solubility ([10]; pH = 5): 2400 µg/mL
- solubility ([10]; pH = 7): 3400 µg/mL
Structure (SMILES): Cc1ccc2ccc(/C=C/C(=O)c3ccncc3)nc2c1 [PFK-154, HCl, 3-(7-Methyl-quinolin-2-yl)-1-pyridin-4-yl-propenone]
